Assay results reported in ChEMBL document CHEMBL3822409, “Synthesis and antitubercular activity of new 1,3,4-oxadiazoles bearing pyridyl and thiazolyl scaffolds” (Bioorg Med Chem Lett, 2016).
≈ marks a conversion by molar mass, not a printed value.

Experiments:
[1] = tested on: Mycobacterium tuberculosis variant bovis BCG; assay: Antimycobacterial activity against active stage of Mycobacterium bovis BCG ATCC 35734 measured on day 8 by nitrate reductase assay; type: functional, organism-based; conditions: ATCC 35734, 192 h
[2] = tested on: Mycobacterium tuberculosis variant bovis BCG; assay: Antimycobacterial activity against dormant stage of Mycobacterium bovis BCG ATCC 35734 measured on day 12 by nitrate reductase assay; type: functional, organism-based; conditions: ATCC 35734, 288 h

Structure (SMILES) | IC50 [1] [µg/mL] | MIC [1] [µg/mL] | IC50 [2] [µg/mL] | MIC [2] [µg/mL]
Cc1ccc(-c2nnc(-c3sc(-c4cccnc4)nc3C)o2)cc1 | 14.2 (≈ 42.6 µM) | > 30 | 15.2 (≈ 45.5 µM) | > 30
Cc1nc(-c2cccnc2)sc1-c1nnc(-c2ccccc2Cl)o1 | 2.62 (≈ 7.38 µM) | 5.16 (≈ 14.5 µM) | 1.47 (≈ 4.14 µM) | 4.77 (≈ 13.4 µM)
Cc1ccccc1-c1nnc(-c2sc(-c3cccnc3)nc2C)o1 | 2.69 (≈ 8.04 µM) | 5.84 (≈ 17.5 µM) | 1.44 (≈ 4.31 µM) | 4.91 (≈ 14.7 µM)
Cc1nc(-c2cccnc2)sc1-c1nnc(-c2cccc(Cl)c2Cl)o1 | > 30 | > 30 | > 30 | > 30
CO[C@H]1/C=C/O[C@@]2(C)Oc3c(C)c(O)c4c(O)c(c(/C=N/N5CCN(C)CC5)c(O)c4c3C2=O)NC(=O)/C(C)=C\C=C\[C@H](C)[C@H](O)[C@@H](C)[C@@H](O)[C@@H](C)[C@H](OC(C)=O)[C@@H]1C [RIFAMPIN] | 0.003 (≈ 0.00365 µM) | 0.08 (≈ 0.0972 µM) | 0.0027 (≈ 0.00328 µM) | 0.05 (≈ 0.0608 µM)
COc1ccccc1-c1nnc(-c2sc(-c3cccnc3)nc2C)o1 | 1.46 (≈ 4.17 µM) | 2.65 (≈ 7.56 µM) | 1.8 (≈ 5.14 µM) | 3.95 (≈ 11.3 µM)
Cc1nc(-c2cccnc2)sc1-c1nnc(-c2ccccc2[N+](=O)[O-])o1 | 1.68 (≈ 4.6 µM) | 2.56 (≈ 7.01 µM) | 3.55 (≈ 9.72 µM) | 5.89 (≈ 16.1 µM)
Cc1nc(-c2cccnc2)sc1-c1nnc(-c2ccncc2)o1 | 24.7 (≈ 76.8 µM) | 40 (≈ 125 µM) | 28 (≈ 87 µM) | 42.2 (≈ 131 µM)
Cc1nc(-c2cccnc2)sc1-c1nnc(-c2ccc(O)cc2)o1 | > 30 | > 30 | > 30 | > 30
Cc1nc(-c2cccnc2)sc1-c1nnc(-c2cccnc2)o1 | 24.5 (≈ 76.2 µM) | 40.4 (≈ 126 µM) | 56.3 (≈ 175 µM) | 94.9 (≈ 295 µM)
Cc1nc(-c2cccnc2)sc1-c1nnc(-c2ccc(Br)cc2)o1 | > 30 | > 30 | > 30 | > 30
Cc1nc(-c2cccnc2)sc1-c1nnc(-c2ccccc2)o1 | > 30 | > 30 | > 30 | > 30
Cc1nc(-c2cccnc2)sc1-c1nnc(-c2ccc(Cl)cc2)o1 | > 30 | > 30 | > 30 | > 30
Cc1nc(-c2cccnc2)sc1-c1nnc(-c2ccc([N+](=O)[O-])cc2)o1 | 22.5 (≈ 61.6 µM) | > 30 | 24.9 (≈ 68.2 µM) | > 30
Cc1cccc(-c2nnc(-c3sc(-c4cccnc4)nc3C)o2)c1 | > 30 | > 30 | > 30 | > 30
Cc1nc(-c2cccnc2)sc1-c1nnc(Cc2ccccc2)o1 | 7.2 (≈ 21.5 µM) | 11.3 (≈ 33.8 µM) | 5.26 (≈ 15.7 µM) | 10.4 (≈ 31 µM)
